Measured values published in patent US20250041387A1, “POLYPEPTIDE SEQUENCE OF KDM6B AND APPLICATION OF KDM6B IN REGULATING AND CONTROLLING FUNCTION OF MESENCHYMAL STEM CELL” (BEIJING STOMATOLOGICAL HOSPITAL, CAPITAL MEDICAL UNIVERSITY, priority 2021, published 2025).

Experiments:
[1] = tested on: bone marrow mesenchymal stem cells; experiment: ALP activity of BMSCs after osteogenic induction; type: cell-based, human; settings: 3 days of induction in osteogenic culture medium, FIG. 4D
Description: (§1) • (1) Osteogenic culture medium was purchased from Invitrogen, USA. • (2) Quantification of alkaline phosphatase (ALP) activity • 1) After 3 days of osteogenic induction, the culture medium was discarded, and the cells were washed with PBS twice. • 2) The cells were added with 500 μL of lysis buffer, and incubated at 37° C. for 15 minutes. • 3) The cells were scraped, transferred into a 1.5 mL EP tube, and centrifuged at 14000 rpm at 4° C. for 10 minutes. The supernatant was transferred into a new EP tube to measure the protein concentration, and the procedure was the same as that in Western blot. • 4) The capsule from the alkaline phosphatase kit (Stock substrate Sol.) was dissolved with 5 mL of distilled water under vigorous shaking, and mixed well. • 5) 50 μL of ALP buffer was added to 50 μL of Stock substrate Sol to obtain a mixture. 100 μL of the mixture was added to each well in a 96-well plate, then added with 10 μL of sample, and mixed well. A blank well without sample added was set for zero adjustment. • 6) The plate was incubated at 37° C. for 15 minutes, and the OD value was measured at 405 nm.
(§2) Result of ALP activity was calculated according to Y/incubation time/protein concentration. • (3) Alizarin red staining • 1) After two weeks of osteogenic induction, the culture medium was discarded. The cells were washed three times with PBS pre-cooled at 4° C., and fixed with 70% ethanol at 4° C. for 1 hour. • 2) The cells were washed 2 times with double distilled water, and stained with 40 mM alizarin red solution (pH 4.2) at room temperature for 10 minutes. The staining was observed by naked eyes. • 3) The cells were washed 3 times with double-distilled water. • (4) Determination of Ca^2+ concentration

[2] = tested on: bone marrow mesenchymal stem cells; experiment: Alizarin red staining and calcium quantification in BMSCs; type: cell-based, human; settings: 2 weeks in osteogenic induction culture medium, FIG. 4E, F
Description: as §2
To quantitatively determine the concentration of calcium, the cells were added with 10% cetyl pyridinium chloride for dissolution for 30 minutes at room temperature. The OD value was measured at 562 nm using a spectrophotometer, and the calcium ion concentration of the samples was calculated according to the standard curve of calcium ion concentration, with the total protein concentration as an internal reference.

[3] = tested on: senescent bone marrow mesenchymal stem cells; experiment: β-gal staining in senescent BMSCs of aged mice; type: cell-based, C57BL/6 mice; settings: FIG. 5A
Description: Prior to the start of the experiment, the GENMED staining solution (Reagent E) in the kit was taken out of the refrigerator at −20° C., and thawed in an ice bath. Then 9.5 mL of GENMED dilution (Reagent D) was added into a 15 ml conical centrifuge tube, added with 500 μL of GENMED staining solution (Reagent E), mixed well, and then preheated in a 37° C. thermostatic sink. The obtained mixture was labeled as GENMED staining working solution.

[4] = tested on: senescent bone marrow mesenchymal stem cells; experiment: ALP activity of senescent BMSCs of aged mice; type: cell-based, C57BL/6 mice; settings: 3 days of osteogenic induction, FIG. 5B
Description: as §1, §2

[5] = tested on: stem cells from apical papilla; experiment: ALP activity of SCAPs after odontogenic induction; type: cell-based, human; settings: SCAPs treated with polypeptide, 3 days of odontogenic induction, FIG. 8E
Description: as §1, §2

[6] = molecular target: KDM6B/WDR5 protein complex (Homo sapiens, UniProt P61964); experiment: Co-IP of KDM6B/WDR5 complex in stem cells from apical papilla; type: cell-based; set-up: endogenous in cells; host or cells: stem cells from apical papilla (SCAPs); settings: SCAPs treated with polypeptide, compared to control group; FIG. 8A
Description: Protein was extracted from cells of knockout group and overexpression group using IP lysate. The knockout group cells SCAPs-Scramsh and SCAPs-KDM6Bsh, SCAPs-Scramsh and SCAPs-WDR5sh, BMSCs-Scramsh and BMSCs-WDR5sh were added with KDM6B antibody, WDR5 antibody, and IgG antibody, respectively, and then rotated on a shaker at 4° C. overnight. On the next day, the cells were added with Protein A/G beads and rotated on a rotary shaker at 4° C. for 2 hours. A complex of protein-antibody-agarose bead was formed, and the formation of a protein complex of KDM6B and WDR5WB was detected by WB. The overexpression group cells SCAPs-Vector, SCAPs-HA-KDM6B, SCAPs-HA-KDM6B-mut102, and SCAPs-HA-KDM6B-mut114 were added with ProteinA/G beads with HA antibody, and cells SCAPs Vector and SCAPs-Myc-WDR5 were added with ProteinA/G beads with Myc antibody. All cells were incubated overnight to form a complex of protein-antibody-agarose bead. The formation of a protein complex of KDM6B and WDR5 was detected by WB method. • (2) Grouping: Input group (loading amount of 25 μg); antibody group (loading amount of 800 μg, 2 μg of antibody); IgG group (loading amount of 800 μg, 2 μg of antibody). Samples were diluted with lysate. • (3) Preparation of protein A/G beads
The protein A/G beads were washed 4 times with PBS, and centrifuged at 2000 g for 2 minutes. […]

Substance | ALP activity [1] | ALP activity ([1]; listed as 114-peptide) | mineralization capacity, quantification of calcium ion [2] | mineralization capacity, quantification of calcium ion ([2]; listed as 114 peptide) | number of β-gal positive cells [3] | ALP activity [4] | ALP activity ([4]; listed as 114-peptide) | ALP activity [5] | ALP activity ([5]; listed as 114 peptide) | binding of KDM6B to WDR5 (Co-IP) [6] | ALP activity ([1]; listed as 102-peptide) | mineralization capacity, quantification of calcium ion ([2]; listed as 102 peptide) | ALP activity ([4]; listed as 102-peptide) | ALP activity ([5]; listed as 102peptide)
FITC-(Acp)-ADLTISHCAADVVRAYGRKKRRQRRR [peptide 114] | promoted | 4.621 | significantly higher | 1.807 | significant reduction | promoted | 7.612 | promoted | 0.7238 | reduced | – | – | – | –
FITC-(Acp)-KEKSRRVLGNLDLQSYGRKKRRQRRR [peptide 102] | promoted | – | significantly higher | – | significant reduction | promoted | – | promoted | – | reduced | 4.218 | 1.584 | 6.951 | 0.3961
